According to article PMC4383003, “Transfer hydrogenation catalysis in cells as a new approach to anticancer drug design” (Nature Communications, 2015):
Several values for one entry are separate records, joined by “and”; a condition that tells them apart may be missing. Equal entries are not always repeated.

What was measured:
[1] = pKa* of aqua adducts of the complexes; assay type: physicochemical; settings: pKa value determined in deuterated solvent
Description: Table 1 pKa* values for aqua adducts of catalysts 1–4 (and 8 for comparison) and turnover frequencies for transfer hydrogenation of NAD^+ using formate. | column: pKa*

[2] = system: A2780 ovarian cancer cells; test: Cell viability on co-administration of Ru complexes (1/3 x IC50) with formate or acetate; assay type: cell-based, human; settings: for Cell viability percentages / Cell viability: A2780, complex 1/3 x IC50, 24 h
Procedure: Cell viability assays were carried out with complexes 1–8 in A2780 ovarian cancer cells. These experiments were carried out as described above with the following modifications: a fixed concentration of each Ru complex equal to 1/3 × IC50 was used in co-administration with three different concentrations of sodium formate or sodium acetate (0.5, 1.0 and 2.0 mM). To prepare the stock solution of the drug, the complex was dissolved in 5% dimethylsulfoxide and diluted in a 1:1 mixture of 0.9% saline:cell culture medium. This stock was further diluted using RPMI-1640 until working concentrations were achieved. Separately, stock solutions of sodium formate or sodium acetate were prepared in saline. The complex and formate were added to each well independently, but within 5 min of each other.
Supplementary Table 7: Percent cell viability of A2780 ovarian cancer cells exposed to equipotent concentrations of ruthenium complexes 1-3 and 5-8 (1/3 x […]
The experiments included 48 h of pre-incubation and 72 h of drug recovery, both in drug-free medium at 310 K in a 5% CO2 humidified atmosphere. All the experiments were performed as duplicates of triplicates in independent experiments and the error bars were calculated as the standard deviation from the mean.
Supplementary Table 11: Cell viability (%) of A2780 ovarian cancer cells exposed […]
administered with different concentrations of sodium acetate (0, 0.5, 1 and 2 mM).
The experiments involved 48 h of pre-incubation and 72 h of drug recovery, both in […]
Cell viability percentages (%)
Complex Acetate concentration (mM)

[3] = system: NAD^+/NADH ratio in A2780 cells; test: NAD+/NADH determination in cells; assay type: cell-based, human
Procedure: Experiments to determine the NAD^+/NADH ratio in A2780 ovarian cancer cells exposed to complex 2 were carried out using the NAD^+/NADH assay kit from Abcam (ab65348) according to the manufacturer’s instructions. Briefly, A2780 cells were seeded in six-well plates at a density of 1.0 × 10^6 cells per well. […] These concentrations of sodium formate were also used on their own as a second set of negative controls. Drug exposure was allowed for 24 h, after which all supernatants were removed by suction and wells were washed with PBS. Cells were treated with trypsin, detached and counted before being pelleted by centrifugation. Cell pellets were extracted using the NAD/NADH extraction buffer and filtered using a 10-kDa-molecular weight cutoff filter. Samples were split into two, the first half was used to determine total NADt (NAD+NADH), and the second half to determine NADH after heating the samples at 333 K for 30 min. The absorbance at 450 nm was normalized against the protein content in each sample determined using the Bradford assay.
Experiments to determine the time dependence of the NAD/NADH ratio in A2780 ovarian cancer cells exposed to complex 2 were carried out using the NAD^+/NADH assay kit as described above with the following modifications.

CT-DNA = test: Circular dichroism of CT-DNA; assay type: binding, calf; settings: different concentrations of complex 2
Procedure: Supplementary Figure 4: Circular dichroism spectra of CT-DNA (1 mM) in red and CT-DNA (1 mM)/complex 2 (mol ratio 3:1) in black. Spectra were recorded under the same conditions, using (A) cacodylate buffer (2 mM, pH 7.4) and NaCl (20 mM) at 298 K, (B) PBS buffer (2 mM, pH 7.4) and NaCl (20 mM).
(1 picture or pasted object on this page, not shown here) […]
the nucleobases.11 Destabilization of DNA can result in a decrease of the melting […]
In the presence of complex 8, the melting temperature of CT-DNA increased In agreement with the literature, 12 by 14 K, in 2 mM NaCl, 2 mM cacodylate buffer.
This increase is due to Ru binding to DNA as well as intercalation. 12 However, upon increasing the chloride concentration by ca. 10x (20 mM NaCl) the melting temperature of CT-DNA in the presence of complex 8, increased only by 7 K. This effect has previously been reported and it is attributed to the partial inhibition of hydrolysis, and, therefore, inhibition of coordination to DNA. 12, 13
Experiments performed in the presence of complex 2, in 2 mM cacodylate buffer and […]
NaCl, no decrease of the melting temperature was observed. These experiments […]
Furthermore, strong binding to DNA can induce chirality in the metal complex, generating a CD signal. 14 CD spectra of CT-DNA in the presence of different concentrations of complex 2 were recorded (Supplementary Figure 4). […]

A2780 cells [4] = test: ROS determination by flow cytometry; assay type: cell-based, human; settings: A2780, complex 2 and 2 mM sodium formate, 24 h
Procedure: Flow cytometry analysis of total induction of ROS in A2780 cells caused by exposure to complex 2 and sodium formate was carried out using the Total ROS detection kit (Enzo Life Sciences) according to the supplier’s instructions. Briefly, 1.0 × 10^6 A2780 cells per well were seeded in a six-well plate. […] After 24 h of drug exposure, supernatants were removed by suction and cells were washed and harvested. Staining was achieved by resuspending the cell pellets in buffer containing the green fluorescent reagent. Cells were analysed in a Becton Dickinson FACScan Flow Cytometer using Ex/Em: 490/525 nm for the oxidative stress detection. Data were processed using Flowjo software. The experiment included cells treated with pyocyanin for 30 min as positive control.

A2780 cells [5] = test: Induction of apoptosis (Annexin V-FITC/PI flow cytometry); assay type: cell-based, human; settings: A2780, complex 2 and 2 mM sodium formate, 24 h
Procedure: Flow cytometry analysis of apoptosis in A2780 cells caused by exposure to complex 2 and sodium formate were carried out using the Annexin V-FITC Apoptosis Detection Kit (Sigma Aldrich) according to the manufacturer’s instructions. […] Cells were harvested using trypsin and stained using PI/Annexin V-FITC. After staining, cell pellets were analysed in a Becton Dickinson FACScan Flow Cytometer. For positive-apoptosis controls, A2780 cells were exposed for 2 h to staurosporine (1 μg ml^−1). Cells for apoptosis studies were used with no previous fixing procedure as to avoid nonspecific binding of the annexin V-FITC conjugate.

## Cc1ccc(C(C)C)cc1.Cc1ccc(S(=O)(=O)[N-]CCN)cc1.[Cl-].[Ru+2] [Complex 2, [(p-cym)Ru(TsEn)Cl]]
[1]
  pKa*: 9.78±0.06
[2]; acetate 0 mM
  Cell viability percentages: 70.8 ± 0.6%
[2]; acetate 0.5 mM
  Cell viability percentages: 69.4 ± 0.9%
[2]; acetate 1 mM
  Cell viability percentages: 68.9 ± 0.3%
[2]; acetate 2 mM
  Cell viability percentages: 67.1 ± 0.6%
[2]; formate 0.5 mM
  Cell viability: 49.7 ± 0.8%
[2]; formate 1 mM
  Cell viability: 38.2 ± 0.6%
[2]; formate 2 mM
  Cell viability: 1.5 ± 0.1% and ~1%
[2]; A2780, formate increased from 0 to 2 mM
  decrease in cell survival: ca. 50 fold
[3]; A2780, 4.5 μM complex 2 and 2 mM sodium formate, 0-24 h
  apparent TOF (TOFap) for conversion of NAD+ to NADH in cells: 0.19 ± 0.01 h⁻¹
[3]; A2780, complex 2, 24 h, 2 mM formate
  NAD+/NADH ratio: 1.1
[3]; A2780, complex 2, 24 h, no formate
  NAD+/NADH ratio: 4.5
[3]; A2780, complex 2 and 2 mM sodium formate, after 12 h
  NAD+/NADH ratio: 0.74
[3]; A2780, complex 2 and 2 mM sodium formate, after 24 h
  NAD+/NADH ratio: 0.98
[3]; A2780, complex 2 and 2 mM sodium formate, t=4 h
  NAD+/NADH ratio: 0.83
CT-DNA
  changes in CD spectra of CT-DNA: No changes
A2780 cells [4]
  levels of reactive oxygen species (ROS) in treated cells: comparable to those arising from treatment with N-acetyl-L-cysteine
A2780 cells [5]
  induction of apoptosis: no population of cells in either of these two stages of apoptosis was detected
